# Legend:
# [1] = test system: A. niger; experiment: Minimal Kill Concentration Test; type: cell-based; conditions: Experiment 1
# Method: (§1) 2. Minimal Kill Concentration Test
# (§2) Make serial 1 in 2 dilutions of the sample using sterile 0.85% saline. Add 0.1 mL of suspension of test organism to the dilution. Incubate at 37° C. for 24 hours. Subculture 1 mL from each tube into 10 mL sterile nutrient broth plus TWEEN 80; incubate at 37° C. for 24 hours.
# (§3) If the Minimum Kill Concentrations of compounds A, B, and a mixture of A and B are a, b and m, respectively, then there is synergy (“S”) upon mixing A and B if
# (§4) ie. S=(a+b)/m>1 for synergy
# [2] = test system: S. aureus; experiment: Minimal Kill Concentration Test; type: cell-based
# Method: as §1, §2, §3, §4
# [3] = test system: B. cereus; experiment: Minimal Kill Concentration Test; type: cell-based; conditions: Experiment 1
# Method: as §1, §2, §3, §4
# [4] = test system: Ps. aeruginosa; experiment: Minimal Kill Concentration Test; type: cell-based
# Method: as §1, §2, §3, §4
# [5] = test system: E. coli; experiment: Minimal Kill Concentration Test; type: cell-based; conditions: Experiment 1
# Method: as §1, §2, §3, §4
# [6] = test system: P. vulgaris; experiment: Minimal Kill Concentration Test; type: cell-based; conditions: Experiment 1
# Method: as §1, §2, §3, §4
# [7] = test system: C. albicans; experiment: Minimal Kill Concentration Test; type: cell-based; conditions: Experiment 1
# Method: as §1, §2, §3, §4
# [8] = Migration of sunscreen agents across a membrane model for skin; type: in vitro ADME; conditions: solution in ethanol
# Method: The effects of the presence of poly(2-propenal, 2-propenoic acid) on the migration of various agents across a model for skin were studied as follows. Results are shown in Table 8: In a special apparatus, the samples were applied to one side of a 0.45 micron cellulose acetate membrane in contact with, on the other side, a stirred solution of ethanol. “After” 1.5 hours, the spectrum of the “ethanol” was compared with the “Before” solution of sample in the same solvent: […]
compound,measurement,setting,value
"O=C(O)CN(CCN(CC(=O)O)CC(=O)O)CC(=O)O [EDTA, ethylene diamine tetra acetic acid]",Minimum Kill Concentration A. niger,[1],1250 p.p.m.
same,Minimum Kill Concentration S. aureus,[2]; Experiment 1,625 p.p.m.
same,Minimum Kill Concentration B. cereus,[3],80 p.p.m.
same,Minimum Kill Concentration Ps. aeruginosa,[4]; Experiment 1,625 p.p.m.
same,Minimum Kill Concentration E. coli,[5],80 p.p.m.
same,Minimum Kill Concentration P. vulgaris,[6],155 p.p.m.
same,Minimum Kill Concentration C. albicans,[7],155 p.p.m.
O=CCCCC=O [glutaraldehyde],Minimum Kill Concentration S. aureus,[2]; Experiment 2,80 p.p.m.
same,Minimum Kill Concentration Ps. aeruginosa,[4]; Experiment 2,155 p.p.m.
CCCCC(CC)COC(=O)c1ccc(N(C)C)cc1 (stereo not shown) [octyl dimethyl p-aminobenzoate],"max (UV spectrum), Before",[8],max = 315 nm
CCCCC(CC)COC(=O)C=Cc1ccc(OC)cc1 (stereo not shown) [octyl methoxy cinnimate],"max (UV spectrum), Before",[8],max = 310 nm
"Oc1ccccc1-c1ccccc1.[Na] [phenol, orthophenylphenol, sodium salt]",Minimum Kill Concentration S. aureus,[2]; Experiment 2,20 p.p.m.
same,Minimum Kill Concentration Ps. aeruginosa,[4]; Experiment 2,>10000 p.p.m.

# — patent US6410040B1, “Polymeric compounds and methods of formulating same” (Chemeq Limited, priority 1998, dated 2002)
